This is an account of results in publication PMC9084593 (Cell reports, 2022).

One assay concerns the target GlmU (Streptococcus pneumoniae, UniProt Q04KU2). The assay can be described thus: DTNB colorimetric acetyltransferase assay, […] nm. It counts as biochemical. The conditions noted are these: 0.4 mM GlcN-1-P, 1 mM acetyl CoA, 5 mM MgCl2, pH 7.5, 37°C.
A further assay deals with T1, GlmM (Streptococcus pneumoniae, UniProt Q04JI8).
T1 sequence (Q04JI8 1-450): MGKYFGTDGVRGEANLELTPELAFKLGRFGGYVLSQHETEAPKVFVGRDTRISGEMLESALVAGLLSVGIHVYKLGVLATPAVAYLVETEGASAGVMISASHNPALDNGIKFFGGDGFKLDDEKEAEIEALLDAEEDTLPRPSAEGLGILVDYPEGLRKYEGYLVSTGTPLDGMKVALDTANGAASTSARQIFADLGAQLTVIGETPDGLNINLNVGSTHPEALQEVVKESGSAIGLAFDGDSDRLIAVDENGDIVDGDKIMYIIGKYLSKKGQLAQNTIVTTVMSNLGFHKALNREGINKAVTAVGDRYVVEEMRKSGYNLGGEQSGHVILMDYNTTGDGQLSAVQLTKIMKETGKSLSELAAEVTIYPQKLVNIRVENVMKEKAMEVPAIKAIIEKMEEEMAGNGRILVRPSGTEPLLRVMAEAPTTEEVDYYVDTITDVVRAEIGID
Nature of the assay: GlmU-coupled DTNB colorimetric mutase assay, […] nm. In kind it is biochemical. The conditions noted are these: 0.4 mM GlcN-6-P, 2 mM acetyl CoA, 5 mM MgCl2, pH 7.5, 37°C.

Chain of GlmU (Q04KU2 whole entry): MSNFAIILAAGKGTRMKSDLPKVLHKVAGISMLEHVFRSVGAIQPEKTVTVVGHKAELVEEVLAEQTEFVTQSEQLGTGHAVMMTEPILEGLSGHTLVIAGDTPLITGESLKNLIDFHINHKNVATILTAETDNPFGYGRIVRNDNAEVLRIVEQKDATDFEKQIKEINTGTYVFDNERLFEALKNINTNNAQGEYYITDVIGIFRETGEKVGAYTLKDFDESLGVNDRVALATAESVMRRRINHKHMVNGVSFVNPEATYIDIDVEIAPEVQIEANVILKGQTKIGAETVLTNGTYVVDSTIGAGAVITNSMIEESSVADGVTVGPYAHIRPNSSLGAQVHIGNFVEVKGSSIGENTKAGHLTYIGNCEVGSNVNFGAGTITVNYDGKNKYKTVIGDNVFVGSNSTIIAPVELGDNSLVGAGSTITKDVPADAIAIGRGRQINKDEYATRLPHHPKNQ

On to `N[C@H]1[C@@H](OP(=O)(O)O)O[C@H](CO)[C@@H](O)[C@@H]1O` [GlcN-1-P], for which the “DTNB colorimetric acetyltransferase assay, 412 nm” value at GlmU was “The GlcN-1-P acetyltransferase activities of the GlmU and the GlmUE315AH330A variant were measured”. Regarding `N[C@H]1C(O)O[C@H](COP(=O)(O)O)[C@@H](O)[C@@H]1O` (some centres unmarked) [GlcN-6-P], the “GlmU-coupled DTNB colorimetric mutase assay, 412 nm” value on GlmM was “The glucosamine-6-phosphate (GlcN-6-P) mutase activity of GlmM was assayed”.
